Source: patent US20240254089A1, “MODULATORS OF MAS-RELATED G-PROTEIN RECEPTOR X4 AND RELATED PRODUCTS AND METHODS” (ESCIENT PHARMACEUTICALS, INC., priority 2020, published 2024)

Target: T1, human MRGPR X4 (Homo sapiens, UniProt Q96LA9)
T1 construct: expressed in transfected cells
Experiment: MRGPR X4 antagonist activity, IP-One Gq HTRF assay in stably transfected HEK cells
Type: cell-based
Conditions: not given
Experimental: HEK cells stably transfected to express human MIRGPR X4 were maintained in an incubator at 37° C. with 5% CO2 and grown in DMEM media with 10% fetal bovine serum (FBS) and […] each of sodium pyruvate, Glutamax, penicillin/streptomycin, and Geneticin. HEK cells stably transfected to express mouse MRGPR A1 were maintained in the same incubator and grown in DMEM media with 10% FBS, 1% each of sodium pyruvate, Glutamax, penicillin/streptomycin, Geneticin, and 2.2 mg/mL Hygromycin.
Cells were plated in a 384-well assay plate at 20,000 cells per well in 12 μL of Opti-MEM and kept in an incubator overnight. On the day of the assay, compounds solubilized at 10 mM in DMSO were added as a 10-point curve (10 uM final top concentration with 1:3 serial dilutions) using a Tecan D300E digital dispenser. Agonists were diluted in assay buffer (final concentrations of 5.7 mM Tris-HCl, 43 mM NaCl, 50 mM LiCl, pH=8) and 2 μL of the appropriate agonist are added to each well. Final concentrations of agonists were 10 μM bilirubin, 20 μM deoxycholic acid, or 100 μM conjugated bilirubin (obtained from Lee Biosolutions, catalog #910-12). Final concentrations of DMSO were kept consistent across the plate. Plates were incubated in the dark for 1 h at 37° C. and then for 30 minutes at room temperature. IP-1 standards and HTRF detection reagents were added according to the IP-One—Gq Kit purchased from Cisbio (part number 62IPAPEJ) and incubated in the dark for 1 h at room temperature. The plate was read on a Molecular Devices SpectraMax iD5 plate reader. The HTRF ratio was calculated from the raw data and graphed using GraphPad Prism to calculate an IC50 value for each compound.

T1 sequence (Q96LA9 whole entry): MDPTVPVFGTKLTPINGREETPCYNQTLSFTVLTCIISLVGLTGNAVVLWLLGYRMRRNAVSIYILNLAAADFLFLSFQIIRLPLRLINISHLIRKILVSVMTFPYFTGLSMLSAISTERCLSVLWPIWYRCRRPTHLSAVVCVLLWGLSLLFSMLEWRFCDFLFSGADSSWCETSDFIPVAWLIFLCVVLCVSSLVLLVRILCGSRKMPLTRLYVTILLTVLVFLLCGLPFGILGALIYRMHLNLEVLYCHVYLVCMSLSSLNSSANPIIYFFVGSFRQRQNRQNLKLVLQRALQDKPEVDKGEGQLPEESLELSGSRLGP

Row | Compound | IC50 [nM]
1 | Cc1cccn2cc(CNC(=O)c3nn(Cc4ccc(Cl)cc4)c4ccccc34)nc12 [Compound 421] | 501 to 1000
2 | O=C(NCCCc1ccncc1)c1nn(Cc2ccc(Cl)cc2)c2ccccc12 [Compound 355] | > 2500
3 | O=C(NCCc1nnc2ccccn12)c1nn(Cc2ccc(Cl)cc2)c2ccc(Br)cc12 [Compound 529] | < 100
4 | Cc1ccc(Cn2nc(C(=O)NCCc3cn(C)c4ccccc34)c3ccccc32)cc1 [Compound 94] | 1000 to 2500
5 | O=C(Cn1nc(C(=O)NCCc2nnc3ccccn23)c2ccccc21)c1ccc(Cl)cc1 [Compound 481] | 501 to 1000
6 | O=C(NCCc1nnc2ccccn12)c1nn(Cc2ccc(-c3cnco3)cc2)c2ccccc12 [Compound 478] | 501 to 1000
7 | Cc1noc(CCNC(=O)c2nn(Cc3ccc(Cl)cc3)c3ccccc23)n1 [Compound 420] | 1000 to 2500
8 | Cc1ccc(Cn2nc(C(=O)NCCc3noc(C(C)C)n3)c3ccccc32)cc1 [Compound 85] | 501 to 1000
9 | CC(C)(C)c1ccc(Cn2nc(C(=O)NCCc3nnc4n3CCCCC4)c3ccccc32)cc1 [Compound 50] | 100 to 500
10 | CC(C)c1cc(CNC(=O)c2nn(Cc3ccc(Cl)cc3)c3ccccc23)on1 [Compound 422] | > 2500
11 | Cc1cccc(CCNC(=O)c2nn(Cc3ccc(Cl)cc3)c3ccccc23)n1 [Compound 55] | 100 to 500
12 | O=C(NCCc1nnc2ccccn12)c1nn(Cc2ccc(Cl)cc2Cl)c2ccccc12 [Compound 525] | < 100
13 | O=C(NCCc1nnc2ccccn12)c1nn(Cc2ccc3c(c2)CCC3)c2ccccc12 [Compound 494] | < 100
14 | Cc1cc(Cn2nc(C(=O)NCCc3nnc4ccccn34)c3ccccc32)ccc1Cl [Compound 555] | < 100
15 | Cc1[nH]c2ccc(O)cc2c1CCNC(=O)c1nn(Cc2ccc(Cl)cc2)c2ccc(F)cc12 [Compound 534] | < 100
16 | O=C(NCCc1noc(-c2ccccc2)n1)c1nn(Cc2ccc(Cl)cc2)c2ccccc12 [Compound 105] | 1000 to 2500
17 | O=C(O)c1nn(Cc2ccc(Cl)cc2)c2ccc(F)cc12 [Compound 322] | 1000 to 2500
18 | Cc1ccc(Cn2nc(C(=O)NCCc3cccnc3)c3cc(Cl)ccc32)cc1 [Compound 27] | < 100
19 | Cc1ccc(Cn2nc(C(=O)NCCc3ccc[nH]3)c3ccccc32)cc1 [Compound 104] | 1000 to 2500
20 | O=C(NCCc1nnc2ccccn12)c1nn(Cc2cc3ccccc3o2)c2ccccc12 [Compound 496] | < 100
21 | O=C(NCCc1ccno1)c1nn(Cc2ccc(Cl)cc2)c2ccccc12 [Compound 90] | 501 to 1000
22 | O=C(NCCc1nnc2ccccn12)c1nn(Cc2nc3ccccc3s2)c2ccccc12 [Compound 497] | < 100
23 | Cc1cnc(CCNC(=O)c2cn(Cc3ccc(Cl)cc3)c3ccccc23)nc1 [Compound 207] | 1000 to 2500

Row | Compound | IC50 [nM]
24 | Cc1ccc(Cn2nc(C(=O)NCCc3nc4c(s3)CCCC4)c3ccccc32)cc1 [Compound 28] | 100 to 500
25 | N#Cc1ccc2c(c1)c(C(=O)NCCc1nnc3ccccn13)nn2Cc1ccc(Cl)cc1 [Compound 551] | < 100
26 | COc1ccc(Cn2cc(C(=O)NCCc3ccc(Cl)c(F)c3)c3ccccc32)cc1 [Compound 218] | 1000 to 2500
27 | COc1ccc(CCNC(=O)c2cn(Cc3ccc(Cl)cc3)c3ccccc23)cn1 [Compound 168] | 100 to 500
28 | O=C(NCCc1nc2ccccc2[nH]1)c1nn(Cc2ccc(Cl)cc2)c2ccccc12 [Compound 357] | < 100
29 | O=C(NCCc1ccc(Cl)c(F)c1)c1cn(Cc2ccccc2F)c2ccccc12 [Compound 224] | > 2500
30 | O=C(NCCc1nc2c(s1)CCCC2)c1nn(Cc2ccc(Cl)cc2)c2ccccc12 [Compound 29] | 100 to 500
31 | O=C(O)c1nn(Cc2ccc(Cl)cc2)c2ccccc12 [Compound 319] | 1000 to 2500
32 | Cc1ccc(Cn2nc(C(=O)NCCc3ccnn3C)c3ccccc32)cc1 [Compound 124] | > 2500
33 | COc1cc(CCNC(=O)c2nn(Cc3ccc(Cl)cc3)c3ccccc23)ccc1O [Compound 366] | < 100
34 | O=C(NCCc1cncnc1)c1nn(Cc2ccc(Cl)cc2)c2ccccc12 [Compound 102] | 1000 to 2500
35 | O=C(NCCc1nnc2ccccn12)c1nn(Cn2nnc3ccccc32)c2ccccc12 [Compound 465] | 100 to 500
36 | O=C(NCCc1c[nH]c2ccc(O)cc12)c1nn(Cc2ccc(Cl)cc2)c2ccccc12 [Compound 338] | 100 to 500
37 | O=C(NCCc1nnc2ccccn12)c1nn(Cc2ccc3c(c2)CCCC3)c2ccccc12 [Compound 559] | < 100
38 | O=C(NCCc1nnc2ccccn12)c1nn(Cc2cnc3ccccc3c2)c2ccccc12 [Compound 455] | 100 to 500
39 | Cn1ncc2cc(Cn3nc(C(=O)NCCc4nnc5ccccn45)c4ccccc43)ccc21 [Compound 452] | 501 to 1000
40 | N#Cc1ccc(CCNC(=O)c2cn(Cc3ccc(Cl)cc3)c3ccccc23)cn1 [Compound 185] | 501 to 1000
41 | O=C(NCCc1nnc2ccccn12)c1nn(Cc2ccc3c(c2)OC(F)(F)O3)c2ccccc12 [Compound 507] | 100 to 500
42 | O=C(NCCc1nnc2ccccn12)c1nn(Cc2cccc3ccsc23)c2ccccc12 [Compound 548] | 501 to 1000
43 | O=C(NCCc1nnc2ccccn12)c1nn(Cc2ccc(Cl)c(F)c2)c2ccccc12 [Compound 524] | < 100
44 | O=C(NCCN1CCCCC1=O)c1nn(Cc2ccc(Cl)cc2)c2ccccc12 [Compound 419] | 100 to 500
45 | Cn1ccc(CNC(=O)c2nn(Cc3ccc(Cl)cc3)c3ccccc23)cc1=O [Compound 392] | 1000 to 2500

Same assay, conditions: versus 20 μM deoxycholic acid agonist; HEK cells expressing human MRGPR X4; read-out: MRGPRX4 Antagonist Activity

Row | Compound | IC50 [nM]
46 | Cc1ccc(S(=O)(=O)NC(=O)c2nn(Cc3ccc(OC(F)F)cc3)c3ccccc23)cc1C [Compound 295] | 1000 to 2500
47 | Cc1cc(S(=O)(=O)NC(=O)c2nn(Cc3ccc(OC(F)F)cc3)c3ccccc23)ccc1F [Compound 290] | 1000 to 2500
48 | O=C(CS(=O)(=O)c1cn(Cc2ccc(Cl)cc2)c2ccccc12)Nc1ccc(F)cc1 [Compound 245] | 501 to 1000
49 | O=C(NS(=O)(=O)c1ccc(Cl)cc1Cl)c1nn(Cc2ccc(Cl)cc2)c2ccccc12 [Compound 308] | > 2500
50 | O=C(CS(=O)(=O)c1cn(Cc2ccc(Cl)cc2)c2ccccc12)Nc1cccc(F)c1 [Compound 240] | 100 to 500
51 | COc1cccc(CS(=O)(=O)NC(=O)c2nn(Cc3ccc(Cl)cc3)c3ccccc23)c1 [Compound 300] | > 2500
52 | O=C(CS(=O)(=O)c1cn(Cc2ccc(Cl)cc2)c2ccccc12)Nc1ccc(Cl)cc1Cl [Compound 251] | 1000 to 2500
53 | COC(=O)c1ccc(S(=O)(=O)NC(=O)c2nn(Cc3ccc(OC(F)F)cc3)c3ccccc23)cc1 [Compound 277] | 1000 to 2500
54 | O=C(CS(=O)(=O)c1cn(Cc2ccc(Cl)cc2)c2ccccc12)Nc1ccc(Cl)cc1 [Compound 256] | > 2500
55 | O=C(CS(=O)(=O)c1cn(Cc2ccc(Cl)cc2)c2ccccc12)Nc1ccccc1F [Compound 237, 2-((1-(4-chlorobenzyl)-1H-indol-3-yl)sulfonyl)-N-(2-fluorophenyl)acetamide] | 100 to 500
56 | O=C(NS(=O)(=O)c1ccc(C(F)(F)F)cc1)c1nn(Cc2ccc(OC(F)F)cc2)c2ccccc12 [Compound 276] | 1000 to 2500
57 | CNCc1cn(CCNC(=O)c2nn(Cc3ccc(Cl)cc3)c3ccccc23)nn1 [Compound 142] | > 2500
58 | Cc1cccc(S(=O)(=O)NC(=O)c2nn(Cc3ccccc3C#N)c3ccccc23)c1 [Compound 260] | 501 to 1000
